Columns and labels:
[1] = tested on: Human ciliated epithelium cells
Experimental: The toleration of liposomal PVP-iodine solutions for nasal applications was studied by investigating the influence of different test substances on ciliated epithelium cells, the most sensible cells of the mucous membrane. A cytotoxic damage of these cells which would cause a restriction of the niucoclliar clearance can. be determined by a detectable decrease of the ciliary vibration.
Human ciliated epithelium cells were analysed by an in-vitro method which enables the determination of the ciliary activity or ciliary vibration. The corresponding cells were exposed and incubated with 100 je.I test substance at a temperature of 37 C. After an incubation period of 5 minutes the ciliary vibration, was measured.
By using this in-vltro method a nutriant solution (Dulbeco) as standard, a 0.2% chlorohexidine solution (typical antiseptic agent), conventional polyvidone iodine solutions (Betaisodona) .of different concentrations (5.0%, 2.5% and 1.25% PVP-iodine) and a liposomal solution containing 4.5% of PVP-iodine were tested.

human viruses = settings: aqueous solution mixed with viral suspensions; cited from earlier work

Q: For N=C(NCCCCCCNC(=N)NC(=N)Nc1ccc(Cl)cc1)NC(=N)Nc1ccc(Cl)cc1 [chlorohexidine], which “ciliary activity / ciliary vibration” value [1] is on record?
A: decrease of the measured ciliary vibration

Q: Which “antiviral effect on viral suspensions” value (human viruses) does the source give for “poly(1-vinyl-2-pyrrolidin-2-on)-iodine complex [PVP-iodine]” here?
A: effective antiviral compound

From patent publication US20150313934A1, “Use of PVP-Iodine Liposomes for Treatment of Herpes” (priority 2003, published 2015)
